Results as given in US20230278984A1 (Global Blood Therapeutics, Inc., priority 2020, published 2023).

Experiments:
[1] = test system: mouse model of beta-thalassemia; settings: cited from earlier work
[2] = target: T1, Human pyruvate kinase R (PKR) (Homo sapiens, UniProt P30613); assay: Biochemical assay for activation of pyruvate kinase R (Kinase-Glo luminescence measurement of ATP generation); settings: for AC50: PKR biochemical assay, 0.1 nM PKR, 0.3 mM ADP, 2 mM FBP, 0.1 mM PEP; for Emax: maximal activation level relative to the activation level achieved by the literature compound AG-348 @ 10 μM
T1 construct: Human pyruvate kinase R (PKR), residues 14-574; 6x-His (N, cleaved yes); 8x-Arg (N, cleaved yes); SUMO (N, cleaved yes); host or cells: E. coli
T1 sequence (P30613 14-574): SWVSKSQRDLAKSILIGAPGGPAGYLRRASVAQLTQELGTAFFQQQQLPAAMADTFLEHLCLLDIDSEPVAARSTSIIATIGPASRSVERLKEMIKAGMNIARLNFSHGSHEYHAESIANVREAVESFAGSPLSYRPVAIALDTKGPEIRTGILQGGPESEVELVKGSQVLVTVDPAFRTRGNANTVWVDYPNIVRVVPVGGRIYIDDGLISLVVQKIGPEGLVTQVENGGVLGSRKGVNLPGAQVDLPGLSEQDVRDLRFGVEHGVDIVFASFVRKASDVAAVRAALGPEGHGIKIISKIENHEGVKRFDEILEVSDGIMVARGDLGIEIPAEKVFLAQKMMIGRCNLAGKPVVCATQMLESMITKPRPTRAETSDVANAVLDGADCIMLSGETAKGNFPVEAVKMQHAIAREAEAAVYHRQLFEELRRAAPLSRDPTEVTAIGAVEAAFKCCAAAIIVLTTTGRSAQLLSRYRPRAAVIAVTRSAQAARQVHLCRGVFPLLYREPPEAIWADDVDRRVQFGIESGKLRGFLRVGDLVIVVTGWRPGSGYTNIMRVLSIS
Method in brief: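 Recombinant human PKR (residues 14-574), E. coli-expressed with His-Arg-SUMO tag removed, purified by Ni-NTA, anion exchange and size exclusion. Activation measured as ATP generation via Kinase-Glo luminescence.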

SMILES	AC50 [2]	Emax [2]	PK activity, ATP levels and RBC parameters [1]
O=C(c1ccc(NS(=O)(=O)c2cccc3cccnc23)cc1)N1CCN(CC2CC2)CC1 [AG-348, Mitapivat]	–	–	increased PK activity and ATP levels, as well as improved RBC parameters
Cc1nc(CNC(=O)NCc2ncnn2-c2ccn3ccnc3c2)n(-c2ccc(Cl)c(F)c2)n1 [Compound 128, 1-{[1-(4-chloro-3-fluorophenyl)-3-methyl-1H-1,2,4-triazol-5-yl]methyl}-3-[(1-{imidazo[1,2-a]pyridin-7-yl}-1H-1,2,4-triazol-5-yl)methyl]urea]	24 nM	59%	–
Cc1nc(CNC(=O)NCc2ncnn2-c2cccnc2)n(-c2ccc(Cl)c(F)c2)n1 [Compound 129, 1-{[1-(4-chloro-3-fluorophenyl)-3-methyl-1H-1,2,4-triazol-5-yl]methyl}-3-{[1-(pyridin-3-yl)-1H-1,2,4-triazol-5-yl]methyl}urea]	430 nM	72%	–
COc1ccc(-n2ncnc2CNC(=O)NCc2nc(C)nn2-c2ccc(Cl)c(F)c2)nc1 [Compound 130, 1-{[1-(4-chloro-3-fluorophenyl)-3-methyl-1H-1,2,4-triazol-5-yl]methyl}-3-{[1-(5-methoxypyridin-2-yl)-1H-1,2,4-triazol-5-yl]methyl}urea]	300 nM	84%	–
Cc1nc(CNC(=O)NCc2ncnn2-c2ccc(C3CC3)nc2)n(-c2ccc(Cl)c(F)c2)n1 [Compound 131, 1-{[1-(4-chloro-3-fluorophenyl)-3-methyl-1H-1,2,4-triazol-5-yl]methyl}-3-{[1-(6-cyclopropylpyridin-3-yl)-1H-1,2,4-triazol-5-yl]methyl}urea]	78 nM	94%	–
Cc1nc(CNC(=O)NCc2ncnn2-c2ccc(C3CCC3)nc2)n(-c2ccc(Cl)c(F)c2)n1 [Compound 132, 1-{[1-(4-chloro-3-fluorophenyl)-3-methyl-1H-1,2,4-triazol-5-yl]methyl}-3-{[1-(6-cyclobutylpyridin-3-yl)-1H-1,2,4-triazol-5-yl]methyl}urea]	490 nM	64%	–
Cc1nc(CNC(=O)NCc2ncnn2-c2cncc(C3CC3)c2)n(-c2ccc(Cl)c(F)c2)n1 [Compound 133, 1-{[1-(4-chloro-3-fluorophenyl)-3-methyl-1H-1,2,4-triazol-5-yl]methyl}-3-{[1-(5-cyclopropylpyridin-3-yl)-1H-1,2,4-triazol-5-yl]methyl}urea]	160 nM	86%	–
COc1cncc(-n2ncnc2CNC(=O)NCc2nc(C)nn2-c2ccc(Cl)c(F)c2)c1 [Compound 134, 1-{[1-(4-chloro-3-fluorophenyl)-3-methyl-1H-1,2,4-triazol-5-yl]methyl}-3-{[1-(5-methoxypyridin-3-yl)-1H-1,2,4-triazol-5-yl]methyl}urea]	170 nM	110%	–
Cc1nc(CNC(=O)NCc2ncnn2-c2cnc3c(F)cccc3c2)n(-c2ccc(Cl)c(F)c2)n1 [Compound 136, 3-{[1-(4-chloro-3-fluorophenyl)-3-methyl-1H-1,2,4-triazol-5-yl]methyl}-1-{[1-(8-fluoroquinolin-3-yl)-1H-1,2,4-triazol-5-yl]methyl}urea]	47 nM	94%	–
Cc1cncc(-n2ncnc2CNC(=O)NCc2nc(C)nn2-c2ccc(Cl)c(F)c2)c1 [Compound 137, 1-{[1-(4-chloro-3-fluorophenyl)-3-methyl-1H-1,2,4-triazol-5-yl]methyl}-3-{[1-(5-methylpyridin-3-yl)-1H-1,2,4-triazol-5-yl]methyl}urea]	180 nM	99%	–
CCc1ccc(-n2ncnc2CNC(=O)NCc2nc(C)nn2-c2ccc(Cl)c(F)c2)cn1 [Compound 141, 1-{[1-(4-chloro-3-fluorophenyl)-3-methyl-1H-1,2,4-triazol-5-yl]methyl}-3-{[1-(6-ethylpyridin-3-yl)-1H-1,2,4-triazol-5-yl]methyl}urea]	140 nM	71%	–
O=C(NCc1ncnn1-c1ccc(Cl)c(F)c1)NCc1ncnn1-c1cnc2cc(F)ccc2c1 [Compound 145, 1-{[1-(4-chloro-3-fluorophenyl)-1H-1,2,4-triazol-5-yl]methyl}-3-{[1-(7-fluoroquinolin-3-yl)-1H-1,2,4-triazol-5-yl]methyl}urea]	51 nM	76%	–

Continued, in another order:

AC50 [2]	Emax [2]	SMILES	PK activity, ATP levels and RBC parameters [1]
86 nM	117%	Cc1nc(CNC(=O)NCc2ncnn2-c2cnc3cc(F)ccc3c2)n(-c2ccc(Cl)c(F)c2)n1 [Compound 135, 1-{[1-(4-chloro-3-fluorophenyl)-3-methyl-1H-1,2,4-triazol-5-yl]methyl}-3-{[1-(7-fluoroquinolin-3-yl)-1H-1,2,4-triazol-5-yl]methyl}urea]	–
44 nM	129%	Cc1nc(CNC(=O)NCc2nc(C)nn2-c2cnc3ccccc3c2)n(-c2ccc(Cl)c(F)c2)n1 [Compound 138, 1-{[1-(4-chloro-3-fluorophenyl)-3-methyl-1H-1,2,4-triazol-5-yl]methyl}-3-{[3-methyl-1-(quinolin-3-yl)-1H-1,2,4-triazol-5-yl]methyl}urea]	–
61 nM	96%	Cc1nc(CNC(=O)NCc2ncnn2-c2cnc3ccc(F)cc3c2)n(-c2ccc(Cl)c(F)c2)n1 [Compound 139, 1-{[1-(4-chloro-3-fluorophenyl)-3-methyl-1H-1,2,4-triazol-5-yl]methyl}-3-{[1-(6-fluoroquinolin-3-yl)-1H-1,2,4-triazol-5-yl]methyl}urea]	–
25 nM	72%	Cc1nc(CNC(=O)NCc2ncnn2-c2cnc3cccc(F)c3c2)n(-c2ccc(Cl)c(F)c2)n1 [Compound 140, 1-{[1-(4-chloro-3-fluorophenyl)-3-methyl-1H-1,2,4-triazol-5-yl]methyl}-3-{[1-(5-fluoroquinolin-3-yl)-1H-1,2,4-triazol-5-yl]methyl}urea]	–
250 nM	127%	CCN(Cc1ncnn1-c1cnc2ccccc2c1)C(=O)NCc1nc(C)nn1-c1ccc(Cl)c(F)c1 [Compound 142, 1-{[1-(4-chloro-3-fluorophenyl)-3-methyl-1H-1,2,4-triazol-5-yl]methyl}-3-ethyl-3-{[1-(quinolin-3-yl)-1H-1,2,4-triazol-5-yl]methyl}urea]	–
140 nM	112%	CCN(Cc1ncnn1-c1ccc(Cl)c(F)c1)C(=O)NCc1nc(C)nn1-c1cnc2ccccc2c1 [Compound 143, 1-{[1-(4-chloro-3-fluorophenyl)-1H-1,2,4-triazol-5-yl]methyl}-1-ethyl-3-{[3-methyl-1-(quinolin-3-yl)-1H-1,2,4-triazol-5-yl]methyl}urea]	–
27 nM	94%	Cc1nc(CNC(=O)NCc2ncnn2-c2ccc(Cl)c(F)c2)n(-c2cnc3ccccc3c2)n1 [Compound 144, 1-{[1-(4-chloro-3-fluorophenyl)-1H-1,2,4-triazol-5-yl]methyl}-3-{[3-methyl-1-(quinolin-3-yl)-1H-1,2,4-triazol-5-yl]methyl}urea]	–
